What was measured:
[1] = In vitro dissolution, USP apparatus 2 (paddle); format: physicochemical; conditions: at first 30 minutes; FIGS. 4-6
Method: In the dissolution testing guideline for immediate release profiles, material dissolves over a period of time, and its dissolution is measured at given intervals during this period. A minimum of three time points is recommended and generally cover early, middle and late stages of the dissolution profile. […] In presence of minor changes to the drug dosage forms, a single point dissolution test may be adequate to ensure product dosing compliance. For major changes, a dissolution profile comparison performed under identical conditions for the product before and after the changes(s) is recommended. […] The term “similarity factor” or F2 factor as used herein refers to one way of comparing dissolution profiles of two different products. (Multisource Pharmaceutical Products: Guidelines on Registration Requirements to establish Interchangeability, Quality Assurance and Safety: Medicines, Essential Drugs and Medicines Policy, World Health Organization, 1211 Geneva 27, Switzerland). This model independent mathematical approach compares the dissolution profile of the two products: test and reference (or two strengths, or pre- and post-approved products from the same manufacturer) and calculates percent (%) difference between two curves at each time point and measures the relative error between two curves. Tests are recommended to be performed under the same test conditions. […]

CYP3A4 = CYP3A4 (Homo sapiens, UniProt P08684); conditions: in vitro studies; cited from earlier work
Sequence of CYP3A4 (P08684 whole entry): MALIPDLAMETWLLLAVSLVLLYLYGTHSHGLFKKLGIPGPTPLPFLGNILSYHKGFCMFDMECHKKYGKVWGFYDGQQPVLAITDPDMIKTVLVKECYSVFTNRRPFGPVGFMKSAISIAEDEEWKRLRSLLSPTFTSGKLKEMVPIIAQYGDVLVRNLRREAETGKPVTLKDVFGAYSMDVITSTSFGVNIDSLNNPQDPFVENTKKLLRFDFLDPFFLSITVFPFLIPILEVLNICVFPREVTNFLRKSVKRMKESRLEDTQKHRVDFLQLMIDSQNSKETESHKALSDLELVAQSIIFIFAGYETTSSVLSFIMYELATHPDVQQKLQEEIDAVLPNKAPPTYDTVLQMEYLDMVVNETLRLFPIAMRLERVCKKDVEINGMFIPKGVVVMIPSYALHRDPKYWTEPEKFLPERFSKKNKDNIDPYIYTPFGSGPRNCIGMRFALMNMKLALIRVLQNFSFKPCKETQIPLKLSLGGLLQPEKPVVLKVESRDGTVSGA

[2] = Hepatic impairment studies: safety assessments (AEs, ECG); format: in vivo, human; conditions: for diarrhea, participants: both studies
Method: Safety assessments included vital signs, clinical laboratory evaluations, ECG, and the collection of adverse events (AEs). […] AEs were recorded at all study visits and as they were reported spontaneously by the participants, up to 30 days after the vilazodone dose. Participants were asked about their well-being at each visit.
Safety assessments were summarized without statistical comparisons. The last assessment made before the first dose of study drug was used as a baseline for all subsequent analyses.

[3] = Study 2: single-dose pharmacokinetics in severe hepatic impairment and matched healthy controls; conditions: for AUC(0-t) / AUC(0-inf) / Cmax / Tmax / half-life: both, human, po, 20 mg; for AUC(0-inf): AUC0-∞; for AUC(0-inf) / Cmax / Tmax / half-life: vilazodone 20 mg single oral dose
Method: The pharmacokinetics, tolerability, and safety of vilazodone were investigated in two separate trials involving participants with hepatic impairment, compared with healthy controls. An Open-label, parallel-group, single-dose pharmacokinetic studies, a single, oral dose of vilazodone (20 mg with increased hardness) was administered to participants with mild, moderate, or severe hepatic impairment or individually matched controls. Outcomes included pharmacokinetic parameters and safety (vital signs, clinical laboratory evaluations, ECG, and adverse events [AEs]). Plasma samples were analyzed using validated LC/MS/MS methods.
Data from two, open-label, parallel-group, single-dose pharmacokinetic studies investigated single-dose vilazodone (20 mg with increased hardness) in participants with hepatic impairment and normal hepatic function. The first study (Study 1) included participants with mild or moderate hepatic impairment and healthy controls. The second study (Study 2) included participants with severe hepatic impairment or healthy participants. These studies were both designed in accordance with the FDA guidance for evaluation of pharmacokinetics in the presence of hepatic impairment. The differences between the study protocols were minimal, so both methodologies are described together, with any differences noted below.
Participants were men and women, 18 to 70 years of age, with a body mass index (BMI) of 18-42 kg/m^2. Women were not pregnant or breastfeeding and agreed to utilize a medically accepted form of contraception during the study (as did men in Study 2). In Study 2, participants were also required to be non-smokers or light smokers (fewer than 10 cigarettes per day; there was no stipulation in Study 1) and to have a sitting pulse rate of 50-100 bpm at screening and prior to dosing on Day 1. […] Each healthy control was matched with a hepatically impaired participant. Control participants in the Study 1 were matched with a hepatically impaired individual according to age (±10 years), sex, and BMI (±15%). Control participants in Study 2 were matched with a hepatically impaired individual according to age (±5 years), sex, and weight (±10%).
Participants with hepatic dysfunction were classified according to the Child-Pugh hepatic dysfunction staging system as having mild (5-6 points) or moderate (7-9 points) hepatic impairment (Study 1), or severe impairment (10-15 points; Study 2). Participants with severe impairment also had chronic liver disease and/or compensated cirrhosis, as evidenced by liver biopsy, computerized tomography or ultrasonic evidence of hepatic fibrosis, clinical evidence of chronic liver disease, or a colloid shift on a liver-spleen scan. Exclusion criteria included the following: a clinical diagnosis or history of depression; treatment with antidepressants, anxiolytics, psychoactive medications (including herbal supplements), other serotonergic drugs, or drugs that inhibit CYP3A4 (eg, ketoconazole, diltiazem, macrolide antibiotics); a hypersensitivity to vilazodone or other SSRIs or 5-HT agonists; history or evidence of alcohol or substance abuse, cancer, human immunodeficiency virus, hepatitis B (Study 1 and healthy controls, both studies) hepatitis C (healthy controls, both studies), or other clinically significant illnesses or medical conditions. Participants with severe hepatic impairment were excluded if they had bleeding diathesis, advanced ascites requiring large-volume paracentesis within 1 week of dosing, esophageal bleeding within the previous 8 weeks, history of portosystemic shunt or hepatic transplant, or evidence of hepatic encephalopathy, hepatorenal syndrome, or other evidence of rapid hepatic deterioration.
Participants were not allowed to have previously taken vilazodone or participated in any clinical investigation requiring repeated blood draws within 60 days of dosing, or donated blood or plasma within 60 or 30 days, respectively.

[4] = group with severe hepatic impairment
[5] = matched controls, 20 mg single dose
[6] = Severe impairment/control, 20 mg single dose, participants who vomited excluded
[7] = plasma, Control matched to Severe Impairment n = 8
[8] = plasma, Severe Impairment n = 4 (who did not vomit)

Cl.N#Cc1ccc2[nH]cc(CCCCN3CCN(c4ccc5oc(C(N)=O)cc5c4)CC3)c2c1 [Vilazodone, 1-[4-(5-cyanoindol-3-yl)butyl]-4-(2-carbamoyl-benzofuran-5-yl)-piperazine hydrochloride]
vilazodone HCl released [1]: 80%
inhibitor or inducer of CYP3A4 (CYP3A4): not an inhibitor or inducer
decrease in QT interval (mean, screening to end of study) [2, 4]: 14.9 ms
increase in QTcB interval (Bazett formula; mean, screening to end of study) [2, 4]: 8.7 ms
deaths, serious AEs, discontinuations due to an AE ([2]; hepatic impairment studies, 20 mg single dose): No deaths, serious AEs, or discontinuations due to an AE
diarrhea, participants [2, 5]: 5 participants
vomiting, participants [2, 5]: 0 participants
vomiting, participants ([2]; participants with hepatic impairment (all severe), 20 mg single dose): 4 participants
diarrhea, participants ([2]; participants with hepatic impairment, 20 mg single dose): 10 participants
AUC0-t, Ratio of Geometric Means (%) [3, 6]: 96.9%
AUC0-∞, Ratio of Geometric Means (%) [3, 6]: 95.8%
Cmax, Ratio of Geometric Means (%) [3, 6]: 75.2%
AUC(0-t) ([3]; in vivo): 642 ± 96.9 ng·h/mL
AUC(0-t) ([3]; plasma): 694 ± 262 ng·h/mL
AUC(0-inf) [3, 7]: 731 ± 267 ng·h/mL
AUC(0-inf) [3, 8]: 670 ± 94.8 ng·h/mL
Cmax [3, 7]: 35 ± 11.8 ng/mL
Cmax [3, 8]: 25.3 ± 3.8 ng/mL
Tmax ([3]; plasma, Tmax (mean), Control matched to Severe Impairment n = 8): 4.2 ± 1.3 h
Tmax ([3]; plasma, Tmax (mean), Severe Impairment n = 4 (who did not vomit)): 4.8 ± 2.2 h
Tmax ([3]; plasma, Tmax, Median, Control matched to Severe Impairment n = 8): 4.5 h
Tmax ([3]; plasma, Tmax, Median, Severe Impairment n = 4 (who did not vomit)): 4 h
half-life ([3]; plasma, t1/2, Control matched to Severe Impairment n = 8): 30.1 ± 13.8 h
half-life ([3]; plasma, t1/2, Severe Impairment n = 4 (who did not vomit)): 29.8 ± 4.8 h
mean Cmax lower than in healthy controls ([3]; severe hepatic impairment vs healthy controls, 20 mg single dose): approximately 25%
Mean unbound drug clearance (CLu/F) lower vs matched controls ([3]; severe impairment group): 33%

— US20150157575A1, “Pharmaceutical Formulations Comprising Vilazodone” (Forest Laboratories Holdings Ltd., priority 2013, published 2015)
